Results taken from article PMC10412597, “Small molecule branched-chain ketoacid dehydrogenase kinase (BDK) inhibitors with opposing effects on BDK protein levels” (Nature Communications, 2023).

Tests used:
[1] = biological target: PLK1 (Homo sapiens, UniProt P53350); design: Invitrogen kinase panel, per cent inhibition of kinase activity; conditions: 10 µM, inhibitor
Experimental: (§1) To discover a potent and selective BDK inhibitor, a subset of the Pfizer compound collection was screened. […] Off target activity was assessed in both CEREP and kinase panels (Supplementary Tables 2, 3).

[2] = biological target: CSNK2A2 (Homo sapiens, UniProt P19784); design: Invitrogen kinase panel, per cent inhibition of kinase activity; conditions: 10 µM, inhibitor
CSNK2A2, sequence (P19784 whole entry): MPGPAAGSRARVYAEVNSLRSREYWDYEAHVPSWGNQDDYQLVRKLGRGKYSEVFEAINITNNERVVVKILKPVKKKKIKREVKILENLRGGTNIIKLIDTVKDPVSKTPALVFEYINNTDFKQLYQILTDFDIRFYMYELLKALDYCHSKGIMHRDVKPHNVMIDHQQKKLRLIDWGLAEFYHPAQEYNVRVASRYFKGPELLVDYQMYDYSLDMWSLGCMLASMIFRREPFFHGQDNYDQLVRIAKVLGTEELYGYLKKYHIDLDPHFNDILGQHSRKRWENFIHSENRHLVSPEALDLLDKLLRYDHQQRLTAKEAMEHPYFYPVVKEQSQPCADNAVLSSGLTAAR
Experimental: as §1

[3] = biological target: T1, JNK1 (Homo sapiens, UniProt P45983); design: Invitrogen kinase panel, per cent inhibition of kinase activity; conditions: 10 µM, inhibitor
T1 construct: gene MAPK8
T1 sequence (P45983 whole entry): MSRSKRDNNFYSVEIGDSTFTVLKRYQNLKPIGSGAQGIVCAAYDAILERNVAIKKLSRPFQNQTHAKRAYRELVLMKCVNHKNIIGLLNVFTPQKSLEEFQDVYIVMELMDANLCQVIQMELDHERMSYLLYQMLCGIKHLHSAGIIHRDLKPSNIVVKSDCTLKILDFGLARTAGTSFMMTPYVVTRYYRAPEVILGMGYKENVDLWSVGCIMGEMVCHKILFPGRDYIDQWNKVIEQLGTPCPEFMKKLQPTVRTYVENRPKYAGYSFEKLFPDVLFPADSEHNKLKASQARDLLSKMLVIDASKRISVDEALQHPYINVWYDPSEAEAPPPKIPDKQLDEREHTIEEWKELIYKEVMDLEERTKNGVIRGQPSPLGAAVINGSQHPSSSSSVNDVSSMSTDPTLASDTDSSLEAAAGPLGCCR
Experimental: as §1

[4] = biological target: T2, Misshapen-like Kinase 1 (Homo sapiens, UniProt Q8N4C8); design: Invitrogen kinase panel, per cent inhibition of kinase activity; conditions: 10 µM, inhibitor
T2 construct: gene MINK1
Experimental: as §1

[5] = biological target: MYLK2 (Homo sapiens, UniProt Q9H1R3); design: Invitrogen kinase panel, per cent inhibition of kinase activity; conditions: 10 µM, inhibitor
MYLK2, sequence (Q9H1R3 whole entry): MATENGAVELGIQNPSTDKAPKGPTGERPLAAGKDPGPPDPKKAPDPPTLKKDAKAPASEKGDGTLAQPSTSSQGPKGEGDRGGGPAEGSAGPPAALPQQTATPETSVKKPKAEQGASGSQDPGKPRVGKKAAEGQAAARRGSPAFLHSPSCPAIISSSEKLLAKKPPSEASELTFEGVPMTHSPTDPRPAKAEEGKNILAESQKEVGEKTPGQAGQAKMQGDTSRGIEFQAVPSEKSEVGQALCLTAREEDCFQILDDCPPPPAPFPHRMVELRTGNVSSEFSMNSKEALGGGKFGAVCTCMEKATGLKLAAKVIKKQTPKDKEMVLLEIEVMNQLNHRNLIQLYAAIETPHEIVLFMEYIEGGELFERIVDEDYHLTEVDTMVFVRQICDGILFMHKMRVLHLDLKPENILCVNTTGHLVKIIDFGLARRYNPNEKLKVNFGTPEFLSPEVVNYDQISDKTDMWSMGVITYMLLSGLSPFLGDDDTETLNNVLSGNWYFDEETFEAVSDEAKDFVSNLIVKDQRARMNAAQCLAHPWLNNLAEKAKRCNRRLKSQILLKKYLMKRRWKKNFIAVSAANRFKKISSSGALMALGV
Experimental: as §1

[6] = biological target: T3, HER4 (Homo sapiens, UniProt Q15303); design: Invitrogen kinase panel, per cent inhibition of kinase activity; conditions: 10 µM, inhibitor
T3 construct: gene ERBB4
Experimental: as §1

[7] = biological target: AKT1 (Homo sapiens, UniProt P31749); design: Invitrogen kinase panel, per cent inhibition of kinase activity; conditions: 10 µM, inhibitor
AKT1, sequence (P31749 whole entry): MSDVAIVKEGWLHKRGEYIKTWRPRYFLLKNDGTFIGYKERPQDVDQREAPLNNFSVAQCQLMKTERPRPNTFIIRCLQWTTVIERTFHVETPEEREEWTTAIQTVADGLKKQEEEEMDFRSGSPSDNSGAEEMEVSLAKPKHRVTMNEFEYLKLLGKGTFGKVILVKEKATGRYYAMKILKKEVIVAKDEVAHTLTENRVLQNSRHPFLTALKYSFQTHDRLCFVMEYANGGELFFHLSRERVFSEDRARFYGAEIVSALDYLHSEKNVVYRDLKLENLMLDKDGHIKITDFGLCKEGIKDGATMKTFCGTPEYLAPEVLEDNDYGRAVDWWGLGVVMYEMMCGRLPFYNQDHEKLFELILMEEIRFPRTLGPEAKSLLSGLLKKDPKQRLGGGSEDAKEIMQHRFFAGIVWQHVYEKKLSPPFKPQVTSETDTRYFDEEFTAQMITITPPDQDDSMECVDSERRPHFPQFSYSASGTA
Experimental: as §1

[8] = biological target: CHEK2 (Homo sapiens, UniProt O96017); design: Invitrogen kinase panel, per cent inhibition of kinase activity; conditions: 10 µM, inhibitor
CHEK2, sequence (O96017 whole entry): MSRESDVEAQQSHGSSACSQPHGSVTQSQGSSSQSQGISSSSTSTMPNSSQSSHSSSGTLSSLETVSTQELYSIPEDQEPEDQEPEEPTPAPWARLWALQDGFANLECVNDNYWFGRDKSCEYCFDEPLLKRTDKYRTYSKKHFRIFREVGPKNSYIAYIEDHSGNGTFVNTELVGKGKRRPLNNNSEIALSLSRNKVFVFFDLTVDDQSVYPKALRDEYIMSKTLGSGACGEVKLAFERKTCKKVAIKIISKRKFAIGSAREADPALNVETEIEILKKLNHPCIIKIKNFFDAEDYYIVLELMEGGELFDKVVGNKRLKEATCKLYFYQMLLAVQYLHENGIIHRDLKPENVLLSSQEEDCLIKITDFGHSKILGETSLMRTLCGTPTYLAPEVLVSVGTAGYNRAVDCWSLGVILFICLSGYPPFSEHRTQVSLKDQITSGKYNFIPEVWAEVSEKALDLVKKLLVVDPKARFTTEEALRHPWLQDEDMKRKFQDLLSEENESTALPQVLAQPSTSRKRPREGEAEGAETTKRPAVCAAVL
Experimental: as §1

[9] = biological target: BTK (Homo sapiens, UniProt Q06187); design: Invitrogen kinase panel, per cent inhibition of kinase activity; conditions: 10 µM, inhibitor
BTK, sequence (Q06187 whole entry): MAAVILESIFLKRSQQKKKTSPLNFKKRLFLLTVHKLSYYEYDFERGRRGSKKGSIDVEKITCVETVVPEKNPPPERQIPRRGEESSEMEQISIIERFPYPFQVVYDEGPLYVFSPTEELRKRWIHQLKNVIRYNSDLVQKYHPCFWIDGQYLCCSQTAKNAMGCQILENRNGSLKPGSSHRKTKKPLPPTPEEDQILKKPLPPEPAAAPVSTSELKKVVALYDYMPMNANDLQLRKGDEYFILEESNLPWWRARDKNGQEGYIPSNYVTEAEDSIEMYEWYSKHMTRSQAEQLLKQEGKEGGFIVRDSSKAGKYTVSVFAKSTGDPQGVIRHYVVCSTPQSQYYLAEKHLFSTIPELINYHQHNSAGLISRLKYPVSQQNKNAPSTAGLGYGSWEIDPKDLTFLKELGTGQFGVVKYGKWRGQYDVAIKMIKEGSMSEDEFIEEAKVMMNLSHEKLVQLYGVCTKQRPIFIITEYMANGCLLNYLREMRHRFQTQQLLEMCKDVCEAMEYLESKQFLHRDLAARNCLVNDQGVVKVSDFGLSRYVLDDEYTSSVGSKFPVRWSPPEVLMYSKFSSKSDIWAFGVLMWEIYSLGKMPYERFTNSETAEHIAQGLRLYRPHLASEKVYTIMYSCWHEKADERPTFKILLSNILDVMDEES
Experimental: as §1

[10] = biological target: ROCK2 (Homo sapiens, UniProt O75116); design: Invitrogen kinase panel, per cent inhibition of kinase activity; conditions: 10 µM, inhibitor
ROCK2, sequence (O75116 whole entry): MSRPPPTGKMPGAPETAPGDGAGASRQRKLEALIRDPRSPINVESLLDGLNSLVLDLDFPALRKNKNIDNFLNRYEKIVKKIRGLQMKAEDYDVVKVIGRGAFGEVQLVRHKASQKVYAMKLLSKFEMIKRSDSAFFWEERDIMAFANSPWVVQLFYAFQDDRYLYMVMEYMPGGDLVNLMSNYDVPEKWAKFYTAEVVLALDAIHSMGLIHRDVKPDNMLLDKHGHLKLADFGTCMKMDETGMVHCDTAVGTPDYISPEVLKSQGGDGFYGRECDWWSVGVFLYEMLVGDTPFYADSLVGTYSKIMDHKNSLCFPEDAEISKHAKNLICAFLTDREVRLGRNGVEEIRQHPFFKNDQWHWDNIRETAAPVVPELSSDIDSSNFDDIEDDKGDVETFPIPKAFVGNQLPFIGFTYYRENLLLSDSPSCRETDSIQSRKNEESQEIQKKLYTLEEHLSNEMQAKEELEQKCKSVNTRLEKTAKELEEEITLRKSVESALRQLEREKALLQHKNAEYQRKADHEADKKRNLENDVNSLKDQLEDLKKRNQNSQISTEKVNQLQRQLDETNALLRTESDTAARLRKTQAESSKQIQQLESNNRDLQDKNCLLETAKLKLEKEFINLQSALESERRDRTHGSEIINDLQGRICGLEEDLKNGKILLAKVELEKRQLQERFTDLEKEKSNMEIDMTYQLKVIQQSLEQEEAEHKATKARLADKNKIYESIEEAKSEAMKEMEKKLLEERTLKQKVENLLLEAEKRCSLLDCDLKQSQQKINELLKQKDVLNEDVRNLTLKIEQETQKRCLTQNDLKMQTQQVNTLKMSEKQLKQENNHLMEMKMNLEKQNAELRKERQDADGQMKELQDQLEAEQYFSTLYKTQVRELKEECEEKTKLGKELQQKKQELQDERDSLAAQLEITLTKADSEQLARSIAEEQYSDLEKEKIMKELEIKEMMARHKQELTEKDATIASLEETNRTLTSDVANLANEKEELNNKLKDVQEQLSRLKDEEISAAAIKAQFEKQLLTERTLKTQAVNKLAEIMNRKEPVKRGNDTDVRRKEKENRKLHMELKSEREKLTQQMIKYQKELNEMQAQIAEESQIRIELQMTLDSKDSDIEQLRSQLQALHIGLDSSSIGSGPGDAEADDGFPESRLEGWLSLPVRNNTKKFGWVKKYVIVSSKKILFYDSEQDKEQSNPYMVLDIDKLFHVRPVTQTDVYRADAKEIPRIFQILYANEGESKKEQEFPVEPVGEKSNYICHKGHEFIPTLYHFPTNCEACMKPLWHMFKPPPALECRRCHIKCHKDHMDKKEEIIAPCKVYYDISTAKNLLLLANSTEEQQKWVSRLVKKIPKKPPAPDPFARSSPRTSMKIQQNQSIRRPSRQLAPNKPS
Experimental: as §1

[11] = biological target: PI4KB (Homo sapiens, UniProt Q9UBF8); design: Invitrogen kinase panel, per cent inhibition of kinase activity; conditions: 10 µM, inhibitor
Experimental: as §1

[12] = biological target: T4, CKI-delta (Homo sapiens, UniProt P48730); design: Invitrogen kinase panel, per cent inhibition of kinase activity; conditions: 10 µM, inhibitor
T4 construct: gene CSNK1D
Experimental: as §1

[13] = biological target: PIK3CG (Homo sapiens, UniProt P48736); design: Invitrogen kinase panel, per cent inhibition of kinase activity; conditions: 10 µM, inhibitor
Experimental: as §1

[14] = biological target: PIK3C2B (Homo sapiens, UniProt O00750); design: Invitrogen kinase panel, per cent inhibition of kinase activity; conditions: inhibitor
Experimental: as §1

[15] = biological target: T5, Acetylcholinesterase (Homo sapiens, UniProt P22303); design: Cerep Bioprint off-target panel, enzyme or kinase inhibition; conditions: inhibitor
T5 construct: gene ACHE
Experimental: as §1

[16] = biological target: T6, Monoamine Oxidase A (Homo sapiens, UniProt P21397); design: Cerep Bioprint off-target panel, enzyme or kinase inhibition; conditions: inhibitor
T6 construct: gene MAOA
Experimental: as §1

[17] = biological target: T7, Abl Kinase (Homo sapiens, UniProt P00519); design: Cerep Bioprint off-target panel, enzyme or kinase inhibition; conditions: inhibitor
T7 construct: gene ABL1
Experimental: as §1

[18] = biological target: T8, Phosphodiesterase 3B (Homo sapiens, UniProt Q13370); design: Cerep Bioprint off-target panel, enzyme or kinase inhibition; conditions: inhibitor
T8 construct: gene PDE3B
Experimental: as §1

[19] = biological target: Kdr Kinase (VEGFR2) (Homo sapiens, UniProt P35968); design: Cerep Bioprint off-target panel, enzyme or kinase inhibition; conditions: inhibitor
Experimental: as §1

[20] = biological target: T9, EGFR Kinase (Homo sapiens, UniProt P00533); design: Cerep Bioprint off-target panel, enzyme or kinase inhibition; conditions: inhibitor
T9 construct: kinase
Experimental: as §1

[21] = biological target: T10, Angiotensin Coverting Enzyme (Homo sapiens, UniProt P12821); design: Cerep Bioprint off-target panel, enzyme or kinase inhibition; conditions: inhibitor
T10 construct: gene ACE
Experimental: as §1

[22] = biological target: LCK (Homo sapiens, UniProt P06239); design: Cerep Bioprint off-target panel, enzyme or kinase inhibition; conditions: inhibitor
Experimental: as §1

[23] = biological target: T11, Phosphodiesterase 4D2 (Homo sapiens, UniProt Q08499); design: Cerep Bioprint off-target panel, enzyme or kinase inhibition; conditions: inhibitor
T11 construct: gene PDE4D; isoform 4D2
Experimental: as §1

[24] = biological target: T12, Aurora A Kinase (Homo sapiens, UniProt O14965); design: Cerep Bioprint off-target panel, enzyme or kinase inhibition; conditions: inhibitor
T12 construct: gene AURKA
Experimental: as §1

[25] = biological target: T13, Cyclooxygenase 2 (Homo sapiens, UniProt P35354); design: Cerep Bioprint off-target panel, enzyme or kinase inhibition; conditions: inhibitor
T13 construct: gene PTGS2
T13 sequence (P35354 whole entry): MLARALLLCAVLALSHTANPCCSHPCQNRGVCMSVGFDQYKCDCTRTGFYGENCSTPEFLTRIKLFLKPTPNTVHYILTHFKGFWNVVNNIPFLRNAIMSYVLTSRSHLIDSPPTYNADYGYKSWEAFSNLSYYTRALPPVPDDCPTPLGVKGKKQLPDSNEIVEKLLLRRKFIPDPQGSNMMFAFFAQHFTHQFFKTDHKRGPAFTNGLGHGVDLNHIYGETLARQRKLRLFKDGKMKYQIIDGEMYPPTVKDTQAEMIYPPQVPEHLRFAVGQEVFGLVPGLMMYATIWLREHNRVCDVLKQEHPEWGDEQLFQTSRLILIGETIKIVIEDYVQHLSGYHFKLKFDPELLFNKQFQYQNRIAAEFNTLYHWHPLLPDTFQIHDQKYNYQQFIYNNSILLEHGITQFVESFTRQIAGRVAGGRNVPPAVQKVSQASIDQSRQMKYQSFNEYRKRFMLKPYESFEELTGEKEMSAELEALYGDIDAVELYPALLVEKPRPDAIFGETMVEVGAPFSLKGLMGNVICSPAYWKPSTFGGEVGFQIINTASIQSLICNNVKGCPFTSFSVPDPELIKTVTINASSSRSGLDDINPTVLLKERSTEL
Experimental: as §1

[26] = biological target: SRC (Homo sapiens, UniProt P12931); design: Cerep Bioprint off-target panel, enzyme or kinase inhibition; conditions: inhibitor
Experimental: as §1

[27] = biological target: T14, P38alpha MAP Kinase (Homo sapiens, UniProt Q16539); design: Cerep Bioprint off-target panel, enzyme or kinase inhibition; conditions: inhibitor
T14 construct: gene MAPK14
Experimental: as §1

O=C(O)c1sc2cc(F)sc2c1Cl [PF-07208254, 3-chloro-5-fluorothieno[3,2-b]thiophene-2-carboxylic acid]
ATP = Km % Inhibition PF-07208254 [1]: 1.8%
ATP = 1 mM % Inhibition PF-07208254 [2]: 7.3%
ATP = Km % Inhibition PF-07208254 [2]: 24.5%
ATP = 100 uM % Inhibition PF-07208254 [3]: -0.6%
ATP = Km % Inhibition PF-07208254 [4]: -3.3%
ATP = 1 mM % Inhibition PF-07208254 [5]: -0.1%
ATP = Km % Inhibition PF-07208254 [5]: -3.6%
ATP = Km % Inhibition PF-07208254 [6]: -11.4%
ATP = 1 mM % Inhibition PF-07208254 [7]: -0.8%
ATP = Km % Inhibition PF-07208254 [7]: 6.7%
ATP = 1 mM % Inhibition PF-07208254 [8]: -0.7%
ATP = Km % Inhibition PF-07208254 [8]: 6.7%
ATP = 1 mM % Inhibition PF-07208254 [9]: 0.8%
ATP = Km % Inhibition PF-07208254 [9]: 5.9%
ATP = Km % Inhibition PF-07208254 [10]: -5.8%
ATP = Km % Inhibition PF-07208254 [11]: 7.9%
ATP = Km % Inhibition PF-07208254 [12]: 9.1%
ATP = Km % Inhibition PF-07208254 [13]: 4.8%
ATP = 10 uM % Inhibition PF-07208254 [14]: 3.5%
% Inhibition PF-07208254 ([15]; 100 µM): -4%
% Inhibition PF-07208254 ([16]; 100 µM): 0%
% Inhibition PF-07208254 ([17]; 100 µM): 42%
% Inhibition PF-07208254 ([18]; 100 µM): -9%
% Inhibition PF-07208254 ([19]; 100 µM): 57%
% Inhibition PF-07208254 ([20]; 100 µM): 19%
% Inhibition PF-07208254 ([21]; 100 µM): -4%
% Inhibition PF-07208254 ([22]; 100 µM): -4%
% Inhibition PF-07208254 ([23]; 100 µM): -11%
% Inhibition PF-07208254 ([24]; 100 µM): 15%
% Inhibition PF-07208254 ([25]; 100 µM): 0%
% Inhibition PF-07208254 ([26]; 100 µM): 11%
% Inhibition PF-07208254 ([27]; 100 µM): 35%

CCC1(COc2ccc(-c3csc(-c4ccccc4C(=O)O)n3)cn2)CC1 [PF-07247685, 2-(4-{6-[(1-ethylcyclopropyl)methoxy]pyridin-3-yl}-1,3-thiazol-2-yl)benzoic acid]
ATP = Km % Inhibition PF-07247685 [1]: 10.1%
ATP = 1 mM % Inhibition PF-07247685 [2]: 1.9%
ATP = Km % Inhibition PF-07247685 [2]: 7.5%
ATP = 100 uM % Inhibition PF-07247685 [3]: 2.1%
ATP = Km % Inhibition PF-07247685 [4]: 21.9%
ATP = 1 mM % Inhibition PF-07247685 [5]: 1.7%
ATP = Km % Inhibition PF-07247685 [5]: 1.4%
ATP = Km % Inhibition PF-07247685 [6]: 7.2%
ATP = 1 mM % Inhibition PF-07247685 [7]: -0.8%
ATP = Km % Inhibition PF-07247685 [7]: 2.4%
ATP = 1 mM % Inhibition PF-07247685 [8]: -0.2%
ATP = Km % Inhibition PF-07247685 [8]: 3.8%
ATP = 1 mM % Inhibition PF-07247685 [9]: 3.1%
ATP = Km % Inhibition PF-07247685 [9]: -0.7%
ATP = Km % Inhibition PF-07247685 [10]: 5.5%
ATP = Km % Inhibition PF-07247685 [11]: 7.1%
ATP = Km % Inhibition PF-07247685 [12]: 6.0%
ATP = Km % Inhibition PF-07247685 [13]: -4.6%
ATP = 10 uM % Inhibition PF-07247685 [14]: 2.0%
% Inhibition PF-07247685 ([15]; 10 µM): -4%
% Inhibition PF-07247685 ([16]; 10 µM): 12%
% Inhibition PF-07247685 ([17]; 10 µM): 11%
% Inhibition PF-07247685 ([18]; 10 µM): -16%
% Inhibition PF-07247685 ([19]; 10 µM): -11%
% Inhibition PF-07247685 ([20]; 10 µM): -6%
% Inhibition PF-07247685 ([21]; 10 µM): -31%
% Inhibition PF-07247685 ([22]; 10 µM): -2%
% Inhibition PF-07247685 ([23]; 10 µM): -24%
% Inhibition PF-07247685 ([24]; 10 µM): -7%
% Inhibition PF-07247685 ([25]; 10 µM): 4%
% Inhibition PF-07247685 ([26]; 10 µM): -8%
% Inhibition PF-07247685 ([27]; 10 µM): 3%
